The subject of test [1] is MCF7. Kind of test: Antiproliferative activity against human MCF7 cells. It is filed as functional, cell-based.
In a further test the test system is SK-BR-3. Kind of test: Antiproliferative activity against human SK-BR-3 cells. The class given is functional, cell-based.
The nature of test [2]: Inhibition of Hsp90 N-terminal assessed as AKt degradation by Western blotting.
Test [3] relates to MCF7. Kind of test: Selectivity ratio of IC50 for human SKBr3 cells to IC50 for human MCF7 cells. The class given is functional.
The nature of test [4]: Inhibition of Hsp90 N-terminal assessed as c-RAF degradation by Western blotting.
Test [5] is described as follows: Inhibition of Hsp90 N-terminal assessed as increase in Hsp70 level.
Test [6] in a line: Inhibition of Hsp90 N-terminal assessed as Her2 degradation by Western blotting.

Each structure is given as a SMILES string.

In the case of `C[C@@H]1C[C@H]2O[C@@H]2/C=C\C=C\C(=O)Cc2c(Cl)c(O)cc(O)c2C(=O)O1` [RADICICOL], the concentration for half-maximal inhibition (IC50) in the test on MCF7 [1] is 0.0477 µM; with SK-BR-3 it was 0.0375 µM.
Regarding `COC1=C(CCC2CCc3c(Cl)c(O)cc(O)c3C2=O)C(=O)C(NC=O)=CC1=O` (stereo not drawn), the IC50 with MCF7 [1] worked out at 11.4 µM; with SK-BR-3, 12.8 µM.
As to `COc1c(O)cc(NC=O)c(O)c1CCC1Cc2c(Cl)c(O)cc(O)c2C1=O` (stereo not drawn), the Activity entry in test [2], in test [4], in test [5] and in test [6] was “Dose-dependent effect” throughout. Also, the “Ratio IC50” value in the test on MCF7 [3] came to 3. Moreover, the half-maximal inhibitory concentration (IC50) in the test on MCF7 [1] turned out to be 12.9 µM; in the test with SK-BR-3 it was 42.1 µM.
For `COc1c(O)cc(NC=O)c(O)c1CCC1CCc2c(Cl)c(O)cc(O)c2C1=O` (stereo not drawn), the Activity entry in test [2], in test [4], in test [5] and in test [6] was “Dose-dependent effect” throughout. The half-inhibitory concentration (IC50) in the test with MCF7 [1] worked out at 9.5 µM; in the test on SK-BR-3, 10.5 µM.
Take `COC1=C(CCC2Cc3c(Cl)c(O)cc(O)c3C2=O)C(=O)C(NC=O)=CC1=O` (stereo not drawn): in the test on MCF7 [3], the “Ratio IC50” value was 3. In addition, the IC50 in the test on MCF7 [1] was 15.1 µM; in the test on SK-BR-3 it was 47.3 µM.
`COC1=C(CC(C)OC(=O)c2cc(Cl)c(O)cc2O)C(=O)C(NC=O)=CC1=O` (stereo not drawn) [RADESTER] gave an IC50 in the test on MCF7 [1] of 13.9 µM.
Regarding `COC1=C(C/C=C2/Cc3c(Cl)c(O)cc(O)c3C2=O)C(=O)C(NC=O)=CC1=O`, in the test on MCF7 [3], the “Ratio IC50” value is recorded as 3. Besides, the values for the IC50 in the test with MCF7 [1] and with SK-BR-3 were 15.2 µM and 40.8 µM, respectively.
For `COC1=C2C[C@@H](C)C[C@H](OC)[C@H](O)[C@@H](C)/C=C(\C)[C@H](OC(N)=O)[C@@H](OC)/C=C\C=C(/C)C(=O)NC(=CC1=O)C2=O` [GELDANAMYCIN], the half-inhibitory concentration (IC50) was determined as 0.0161 µM in the test on MCF7 [1] and 0.0158 µM in the test on SK-BR-3.
The corresponding values for `COC1=C(C/C=C2/CCc3c(Cl)c(O)cc(O)c3C2=O)C(=O)C(NC=O)=CC1=O` are 11.8 µM and 12.5 µM.
